This note sets out measurements from patent publication US10233463B2, “Neurotensin-induced tumor formation is regulated by micro RNA 133A-aftiphilin-dependent receptor recycling” (THE REGENTS OF THE UNIVERSITY OF CALIFORNIA, priority 2013, dated 2019).

Molecules are shown by their SMILES.

One experiment relates to NCM460-NTR1 cells. As to the kind of experiment: NTR1 localization and recycling by immunofluorescence. Conditions: 10 nM Brefeldin A during recovery. Format: cell-based, human.
The test system of the next experiment is SW480 cells. As to the kind of experiment: Anchorage-independent growth assay with Brefeldin A in the presence of NT. Format: cell-based, human. Here is the method:
Anchorage-independent growth assays. […] HCT-116 and SW480 cells were transfected with miR-133α or si-AFTPH 2 days prior to the assay. In addition, SW480 cells were treated with 2.5, 5, 10 μg/ml brefeldin A in the presence of 100 nM NT. Triplicates of 5,000 cells were suspended in complete growth media supplemented with 0.4% agarose [mixing 2% agarose with complete growth media in 1:4 (v/v)). Cell mixtures were layered on 0.8% agarose and fed with complete growth media supplemented with 0.4% agarose every 6-7 days. The number of colonies was counted after 15 days. Experiments were repeated 3 times. Statistical significance was calculated using the Student's t-Test.

Method for NCM460-NTR1 cells: Immunofluorescence. NCM460-NTR1 cells were transfected with antisense miR-133α (as-miR-133α) (Ambion) and its control using siPORTNeoFX transfection reagent (Applied Biosystems) or siRNA against AFTPH and its control (Santa Cruz) using Lipofectamine™ RNAiMAX (Invitrogen) where appropriate. […] Cells were fixed in PBS containing 4% (w/v) paraformeldehyde (pH 7.4, 20 min, 4° C.) and blocked in PBS containing 3% bovine serum and 0.1% Triton X. Cells were incubated (16 h, 4° C.) with the following antibodies (Santa Cruz): goat anti-NTR1 (1:100), goat anti-AFTPH (1:100) and rabbit anti-TGN38 (1:100). Cells were washed and incubated (2 h, room temperature) with bovine anti-goat IgG or bovine-anti-rabbit IgG conjugated to FITC or Texas Red (Santa Cruz, 1:500). […]
Image analysis protocol. Substacks of five optical sections were generated per image and were analyzed using Images J with MacBiophotonics plugins. […] Mean fluorescence intensity was measured for these two regions, representing the intracellular and cell surface associated NTR1 labeling, respectively. The relative surface and intracellular values were expressed as a ratio. […] Only cells with a defined nucleus were analyzed and only within cell comparisons were made. […]

In the case of `C[C@H]1CCC/C=C/[C@@H]2C[C@H](O)C[C@H]2[C@H](O)/C=C/C(=O)O1` [Brefeldin A], the “membrane-associated NTR1 vs total cellular receptors” value was 57.0±2.95% in the experiment with NCM460-NTR1 cells (3 h after NT stimulation) and 52.1±2.89% in the experiment with NCM460-NTR1 cells (6 h after NT stimulation). For the same molecule, in the experiment with SW480 cells (2.5, 5, 10 μg/ml), the “SW480 cell growth (colony formation)” value is “inhibited”. Further, the “reduction of NT-induced tumor colony formation” value with SW480 cells (NT 100 nM) was 44.1±1.1%.
